Columns and labels:
Assay in all cases: relative viability (nuclei count vs DMSO), 5 days (fraction); higher = more cells survive
[1] = compound: C1COCCN1C2=NC(=NC3=C2OC4=C3C=CC=N4)C5=CC(=CC=C5)NC(=O)C6=CN=C(C=C6)N + O=C(c1cc(Cc2n[nH]c(=O)c3ccccc23)ccc1F)N1CCN(C(=O)C2CC2)CC1 [Olaparib] (partner 8 µM)
Summary of the method: (§1)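 Lung cancer cell lines were seeded in 1536-well plates and dosed by pin tool the next day, with either a single drug or a fixed anchor-drug dose combined with five library-drug doses (not always all listed) spaced in √10 steps. Five days later, one step fixed the cells and stained their nuclei (final 0.05% Triton X-100, 1% formaldehyde, 1 ug/ml Hoechst), and nuclei were counted on 4× images. Relative viability is the nuclei count in treated wells divided by the count in vehicle wells, and each value is the median of duplicate plates.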

[2] = compound: CN1CCC(CNc2ccc3ncc(-c4cccc(OC(F)(F)F)c4)n3n2)CC1 [SGI-1776] + O=C(c1cc(Cc2n[nH]c(=O)c3ccccc23)ccc1F)N1CCN(C(=O)C2CC2)CC1 [Olaparib] (partner 8 µM)
Summary of the method: as §1

[3] = compound: CN1CCC(CNc2ccc3ncc(-c4cccc(OC(F)(F)F)c4)n3n2)CC1 [SGI-1776] + N=C(N)NC(=N)NCCc1ccccc1 [Phenformin] (partner 250 µM)
Summary of the method: as §1

[4] = compound: CN1CCC(CNc2ccc3ncc(-c4cccc(OC(F)(F)F)c4)n3n2)CC1 [SGI-1776] + Nc1nc2[nH]cc(CCc3ccc(C(=O)N[C@@H](CCC(=O)O)C(=O)O)cc3)c2c(=O)[nH]1 [Pemetrexed] (partner 0.2 µM)
Summary of the method: as §1

Cell Line | relative viability ([1]; first compound 0.02 µM) | relative viability ([1]; first compound 0.06325 µM) | relative viability ([1]; first compound 0.2 µM) | relative viability ([1]; first compound 0.6325 µM) | relative viability ([1]; first compound 2 µM) | relative viability ([2]; first compound 0.08 µM) | relative viability ([2]; first compound 0.8 µM) | relative viability ([2]; first compound 2.53 µM) | relative viability ([2]; first compound 8 µM) | relative viability ([3]; first compound 0.08 µM) | relative viability ([3]; first compound 0.8 µM) | relative viability ([3]; first compound 2.53 µM) | relative viability ([3]; first compound 8 µM) | relative viability ([4]; first compound 0.08 µM) | relative viability ([4]; first compound 0.8 µM) | relative viability ([4]; first compound 2.53 µM) | relative viability ([4]; first compound 8 µM)
LOU-NH91 | 0.928 | 0.959 | 0.942 | 0.864 | 0.745 | 0.968 | 0.986 | 0.957 | 0.773 | 0.754 | 0.733 | 0.716 | 0.565 | 0.371 | 0.371 | 0.405 | 0.446
NCI-H2170 | 0.736 | 0.652 | 0.528 | 0.624 | 0.41 | 0.638 | 0.686 | 0.651 | 0.614 | 0.388 | 0.382 | 0.345 | 0.307 | 0.225 | 0.287 | 0.254 | 0.295
NCI-H1793 | 0.831 | 0.884 | 0.968 | 0.769 | 0.508 | 0.87 | 0.99 | 0.864 | 0.8 | 0.389 | 0.219 | 0.262 | 0.249 | 0.947 | 1.17 | 0.835 | 0.689
NCI-H322M | 0.793 | 0.77 | 0.685 | 0.943 | 0.586 | 0.871 | 0.772 | 0.812 | 0.697 | 0.875 | 0.846 | 0.786 | 0.552 | 0.648 | 0.65 | 0.59 | 0.504
PC-3 [JPC-3] | 1.19 | 1.19 | – | 1.17 | 0.709 | 1.13 | 1.14 | 1.11 | 0.797 | 0.509 | 0.476 | 0.511 | 0.451 | 1.17 | 1.42 | 0.936 | 0.495
EPLC-272H | 0.732 | 0.807 | 0.547 | 0.721 | 0.58 | 1.01 | 0.922 | 0.737 | 0.348 | 0.261 | 0.326 | 0.352 | 0.246 | 0.423 | 0.362 | 0.351 | 0.246
A-427 | 0.795 | 0.717 | 0.72 | 0.789 | 0.598 | 0.724 | 0.723 | 0.739 | 0.569 | 0.258 | 0.277 | 0.275 | 0.209 | 1.01 | 1.05 | 0.944 | 0.897
